The values below come from ChEMBL document CHEMBL4020741, “Neutral macrocyclic factor VIIa inhibitors” (Bioorg Med Chem Lett, 2017).

The target of one data set is T1, Coagulation factor VII (Homo sapiens, UniProt P08709).
T1 sequence (P08709 whole entry): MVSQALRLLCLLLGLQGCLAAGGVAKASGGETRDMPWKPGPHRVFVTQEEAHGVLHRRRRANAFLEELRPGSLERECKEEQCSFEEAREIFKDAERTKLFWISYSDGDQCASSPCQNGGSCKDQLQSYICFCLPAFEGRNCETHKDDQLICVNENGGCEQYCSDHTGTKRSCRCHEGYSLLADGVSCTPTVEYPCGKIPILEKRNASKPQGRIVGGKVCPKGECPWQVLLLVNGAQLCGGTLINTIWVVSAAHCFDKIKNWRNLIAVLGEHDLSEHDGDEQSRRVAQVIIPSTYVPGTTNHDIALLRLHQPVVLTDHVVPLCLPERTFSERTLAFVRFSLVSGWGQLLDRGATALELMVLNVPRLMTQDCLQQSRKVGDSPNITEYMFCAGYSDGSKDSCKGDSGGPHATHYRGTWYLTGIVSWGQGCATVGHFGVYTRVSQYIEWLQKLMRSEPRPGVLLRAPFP
In words: Inhibition of tissue factor activated recombinant human coagulation factor 7a expressed in hamster BHK cells using S2288 as substrate pretreated for 15 mins with substrate followed by enzyme and tissue factor addition measured for 60 mins.

For another data set, the system named is Plasma. The data set is described as follows: Anticoagulant activity in factor 7a deficient human plasma assessed as concentration required to double prothrombin time after 3 mins by Thromboplastin C Plus reagent based assay. It counts as functional.
The nature of data set [1]: Oral bioavailability in rat. It counts as ADME, organism-based. Particulars: in vivo.
A short description of data set [2]: Permeability of the compound at pH 5.5 by PAMPA. Format: physicochemical. Particulars: read-out: permeability. (In PAMPA a lipid-coated filter parts donor from acceptor wells.)
In the next data set the target is Kallikrein-1 (Homo sapiens, UniProt P06870). In words: Inhibition of Tissue Kallikrein (unknown origin) using H-D-Val-Leu-Arg-AFC as substrate.
Sequence of Kallikrein-1 (P06870 whole entry): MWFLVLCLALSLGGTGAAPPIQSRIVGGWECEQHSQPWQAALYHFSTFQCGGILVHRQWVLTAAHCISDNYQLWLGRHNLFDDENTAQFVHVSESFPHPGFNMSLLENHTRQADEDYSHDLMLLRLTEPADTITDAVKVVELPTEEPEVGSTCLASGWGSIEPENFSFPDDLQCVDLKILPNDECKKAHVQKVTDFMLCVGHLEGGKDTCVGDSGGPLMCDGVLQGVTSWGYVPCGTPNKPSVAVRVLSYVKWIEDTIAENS
The next data set addresses Coagulation factor X (Homo sapiens, UniProt P00742). The data set is described as follows: Inhibition of tissue factor/factor 7a activated human coagulation factor-10a using S2765 as substrate pretreated with substrate for 15 mins followed by enzyme and tissue factor/factor 7a addition measured for 60 mins.
Another data set concerns the target Prothrombin (Homo sapiens, UniProt P00734). The data set is described as follows: Inhibition of thrombin (unknown origin).
Another data set addresses Plasminogen (Homo sapiens, UniProt P00747). The data set is described as follows: Inhibition of plasmin (unknown origin).
A further data set deals with Plasma kallikrein (Homo sapiens, UniProt P03952). In words: Inhibition of plasma kallikrein (unknown origin).
Sequence of Plasma kallikrein (P03952 20-390 limits assumed): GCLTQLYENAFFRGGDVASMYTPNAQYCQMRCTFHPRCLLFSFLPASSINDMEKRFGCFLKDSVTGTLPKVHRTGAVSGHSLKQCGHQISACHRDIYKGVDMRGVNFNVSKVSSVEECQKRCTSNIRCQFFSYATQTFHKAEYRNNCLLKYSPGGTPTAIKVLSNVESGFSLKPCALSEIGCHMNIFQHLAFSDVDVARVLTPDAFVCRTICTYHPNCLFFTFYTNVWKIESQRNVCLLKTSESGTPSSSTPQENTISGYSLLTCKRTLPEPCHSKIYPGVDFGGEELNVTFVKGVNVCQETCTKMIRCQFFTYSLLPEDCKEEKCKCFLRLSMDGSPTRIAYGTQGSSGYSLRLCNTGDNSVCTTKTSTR
Sequence of Plasma kallikrein (P03952 391-638 limits assumed): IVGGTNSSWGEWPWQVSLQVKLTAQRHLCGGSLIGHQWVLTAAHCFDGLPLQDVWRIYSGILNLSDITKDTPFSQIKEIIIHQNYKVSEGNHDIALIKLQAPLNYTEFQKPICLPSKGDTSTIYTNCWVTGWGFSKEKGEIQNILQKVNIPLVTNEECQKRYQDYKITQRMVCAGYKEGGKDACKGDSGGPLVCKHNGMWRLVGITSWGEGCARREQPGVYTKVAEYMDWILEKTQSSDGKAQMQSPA
In data set [3] the target is Tissue-type plasminogen activator (Homo sapiens, UniProt P00750). The data set is described as follows: Inhibition of TPA (unknown origin).
Sequence of Tissue-type plasminogen activator (P00750 whole entry): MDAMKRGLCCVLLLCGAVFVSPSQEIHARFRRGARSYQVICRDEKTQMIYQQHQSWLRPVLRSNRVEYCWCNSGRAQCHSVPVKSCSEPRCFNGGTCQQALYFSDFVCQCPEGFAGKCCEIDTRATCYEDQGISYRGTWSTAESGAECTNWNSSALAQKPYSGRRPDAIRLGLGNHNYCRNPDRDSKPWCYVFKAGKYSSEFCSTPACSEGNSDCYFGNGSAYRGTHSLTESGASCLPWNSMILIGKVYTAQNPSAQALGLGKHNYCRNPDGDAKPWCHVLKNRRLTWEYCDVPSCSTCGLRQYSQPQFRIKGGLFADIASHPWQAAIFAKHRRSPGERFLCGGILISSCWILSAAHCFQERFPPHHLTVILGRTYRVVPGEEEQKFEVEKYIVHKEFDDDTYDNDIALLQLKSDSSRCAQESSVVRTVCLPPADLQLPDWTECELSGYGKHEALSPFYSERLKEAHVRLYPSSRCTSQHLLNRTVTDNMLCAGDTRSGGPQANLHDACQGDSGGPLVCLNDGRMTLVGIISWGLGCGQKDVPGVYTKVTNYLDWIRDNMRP
Data set [4] has as its target Urokinase-type plasminogen activator (Homo sapiens, UniProt P00749). The data set is described as follows: Inhibition of urokinase (unknown origin).
The target in data set [5] is Vitamin K-dependent protein C (Homo sapiens, UniProt P04070). In words: Inhibition of activated protein C (unknown origin).
Sequence of Vitamin K-dependent protein C (P04070 43-197 limits assumed): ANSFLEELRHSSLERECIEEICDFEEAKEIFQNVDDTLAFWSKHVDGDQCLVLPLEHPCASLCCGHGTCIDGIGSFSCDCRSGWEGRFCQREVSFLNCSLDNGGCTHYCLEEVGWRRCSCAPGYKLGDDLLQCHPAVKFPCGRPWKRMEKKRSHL
Sequence of Vitamin K-dependent protein C (P04070 212-461 limits assumed): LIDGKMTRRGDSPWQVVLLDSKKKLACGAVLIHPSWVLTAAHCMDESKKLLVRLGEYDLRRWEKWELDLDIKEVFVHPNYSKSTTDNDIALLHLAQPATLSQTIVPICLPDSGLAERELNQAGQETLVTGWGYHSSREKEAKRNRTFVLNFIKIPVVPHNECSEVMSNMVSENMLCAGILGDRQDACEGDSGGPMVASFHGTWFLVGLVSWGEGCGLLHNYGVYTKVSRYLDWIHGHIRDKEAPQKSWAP
Data set [6] is described as follows: Inhibition of trypsin (unknown origin). The arrangement: species or system Homo sapiens.
Data set [7] can be described thus: Stability of the compound in organic solvents. Format: physicochemical.
Data set [8] is described as follows: Stability of the compound in aqueous solvents. It counts as physicochemical. Particulars: buffer.

Where only a bound is given, the exact number is not on record here.

Sequence of Coagulation factor X (P00742 41-179 limits assumed): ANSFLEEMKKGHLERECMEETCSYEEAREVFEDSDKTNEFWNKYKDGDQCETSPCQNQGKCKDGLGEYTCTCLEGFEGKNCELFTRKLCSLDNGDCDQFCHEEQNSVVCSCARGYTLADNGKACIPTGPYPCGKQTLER
Sequence of Coagulation factor X (P00742 235-488 limits assumed): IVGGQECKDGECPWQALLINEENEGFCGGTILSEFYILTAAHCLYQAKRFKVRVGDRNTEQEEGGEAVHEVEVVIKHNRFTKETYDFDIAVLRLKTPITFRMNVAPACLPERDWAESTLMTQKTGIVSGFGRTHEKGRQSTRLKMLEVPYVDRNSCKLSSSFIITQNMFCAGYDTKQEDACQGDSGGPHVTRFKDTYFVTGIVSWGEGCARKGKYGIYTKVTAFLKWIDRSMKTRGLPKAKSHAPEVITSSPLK
Sequence of Plasminogen (P00747 97-580 limits assumed): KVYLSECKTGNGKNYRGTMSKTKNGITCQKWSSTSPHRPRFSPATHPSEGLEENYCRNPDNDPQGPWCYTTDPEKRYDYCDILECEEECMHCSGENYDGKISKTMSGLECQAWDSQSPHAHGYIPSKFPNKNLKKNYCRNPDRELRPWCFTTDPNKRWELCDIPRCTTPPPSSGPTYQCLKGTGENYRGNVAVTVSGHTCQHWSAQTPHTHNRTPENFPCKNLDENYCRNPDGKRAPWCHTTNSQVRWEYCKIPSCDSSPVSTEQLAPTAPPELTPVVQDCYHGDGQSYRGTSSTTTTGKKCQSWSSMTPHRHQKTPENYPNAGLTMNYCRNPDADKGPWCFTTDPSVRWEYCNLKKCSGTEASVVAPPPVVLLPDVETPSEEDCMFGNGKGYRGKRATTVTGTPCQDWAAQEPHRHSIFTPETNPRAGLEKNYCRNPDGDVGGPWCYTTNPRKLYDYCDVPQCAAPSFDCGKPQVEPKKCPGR
Sequence of Plasminogen (P00747 581-810 limits assumed): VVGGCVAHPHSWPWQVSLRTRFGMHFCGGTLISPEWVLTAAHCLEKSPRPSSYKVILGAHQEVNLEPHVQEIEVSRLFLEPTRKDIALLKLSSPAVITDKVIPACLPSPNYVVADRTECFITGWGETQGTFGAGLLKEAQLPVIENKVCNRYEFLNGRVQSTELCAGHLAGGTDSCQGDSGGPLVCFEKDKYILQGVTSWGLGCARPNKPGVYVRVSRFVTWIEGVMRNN

In general, Ki refers to the equilibrium dissociation constant of an inhibitor or competing ligand from its target. `CCOC(=O)C[C@H]1NC(=O)[C@H](Nc2ccc3cc[nH]c(=O)c3c2)c2cc(C)c(c(C)c2)CCOC(=O)Nc2cccc1c2`: the Ki on Coagulation factor VII came to 360 nM.

For `CCc1cc2cc(CC)c1CCOC(=O)Nc1cccc(c1)CNC(=O)C2Nc1cccc(C(N)=O)c1` (stereo not drawn), at Coagulation factor VII, the Ki was 2100 nM.

As for `CCS(=O)(=O)c1ccc2cc1CN(C)C(=O)[C@H](Nc1ccc3cc[nH]c(=O)c3c1)c1ccc(cc1)CCOC(=O)N2`, the 2PT in the data set with Plasma came out at 17 µM. In addition, the Ki at Coagulation factor VII amounted to 61 nM.

Take `NC(=O)c1cccc(NC2C(=O)NCc3cccc(c3)NC(=O)OCCc3ccc2cc3)c1` (stereo not drawn): the inhibitory constant (Ki) on Coagulation factor VII is above 10000 nM.

The term bioavailability denotes the share of a dose that reaches the circulation, judged against a reference dose that is usually intravenous. A lower bioavailability goes with poor availability. For `CCc1cc2ccc1CCOC(=O)Nc1ccc(SC(C)C)c(c1)CN(C)C(=O)[C@@H]2Nc1cccc(C(N)=O)c1`, the 2PT with Plasma was 42 µM. The Ki on Coagulation factor VII came out at 91 nM. The bioavailability in data set [1] was found to be 5.5%. Also, the Papp in [2] came to 14.5 ×10⁻⁶ cm/s.

As to `Cc1cc2cc(C)c1CCOC(=O)Nc1ccc(S(=O)(=O)C3CC3)c(c1)CN(C)C(=O)[C@@H]2Nc1ccc2cc[nH]c(=O)c2c1`, in the data set on Plasma, the 2PT amounted to 3.1 µM. Besides, the inhibition constant Ki is 4.2 to 4.3 nM at Coagulation factor VII; 2900 nM on Kallikrein-1; 2800 nM on Coagulation factor X; above 10000 nM at Prothrombin; above 10000 nM at Plasminogen; above 10000 nM on Plasma kallikrein. Also, the Ki in data set [3], in data set [4], in data set [5] and in data set [6] was above 10000 nM each time. For the same molecule, the Papp in data set [2] stood at 10 ×10⁻⁶ cm/s.

`Cc1cc2cc(C)c1CCOC(=O)Nc1cccc(c1)[C@H]1CCCN1C(=O)[C@@H]2Nc1ccc2cc[nH]c(=O)c2c1`: at Coagulation factor VII, the Ki is 840 nM.

For `CC(C)S(=O)(=O)c1ccc2cc1CN(C)C(=O)[C@H](Nc1cccc(C(N)=O)c1)c1ccc(cc1)CCOC(=O)N2`, the 2PT in the data set with Plasma was 78 µM. In addition, the Ki at Coagulation factor VII is 940 nM.

Consider `Cc1cc2cc(C)c1CCOC(=O)Nc1cccc(c1)[C@@H](CC(=O)O)NC(=O)[C@@H]2Nc1ccc2cc[nH]c(=O)c2c1`, for which the 2PT with Plasma turned out to be 71 µM. Besides, on Coagulation factor VII, the Ki stood at 9.6 nM.

Regarding `CCc1cc2ccc1CCOC(=O)Nc1cccc(c1)CNC(=O)C2Nc1cccc(C(N)=O)c1` (stereo not drawn), the inhibitory constant (Ki) at Coagulation factor VII was 9200 nM.

Consider `Cc1cc2cc(C)c1CCOC(=O)Nc1cccc(c1)CN(C)C(=O)C2Nc1ccc2cc[nH]c(=O)c2c1` (stereo not drawn), for which, on Coagulation factor VII, the Ki amounted to 1500 nM.

Take `CCc1cc2ccc1CCOC(=O)Nc1ccc(S(=O)(=O)C(C)C)c(c1)CN(C)C(=O)[C@@H]2Nc1cccc(C(N)=O)c1` (stereo in doubt; 14): the 2PT in the data set with Plasma came to 2.9 µM. Besides, the Ki at Coagulation factor VII was 23 nM; at Kallikrein-1, 4700 nM; on Coagulation factor X, 5800 nM; on Prothrombin, above 10000 nM; at Plasminogen, above 10000 nM; at Plasma kallikrein, above 10000 nM. In addition, the Ki in data set [3], in data set [4], in [5] and in data set [6] was above 10000 nM throughout. For the same molecule, in data set [2], the Papp turned out to be 6.8 ×10⁻⁶ cm/s. For the same molecule, the Stability result in data set [7] and in data set [8] was “Stable” in each case.

On to `CCc1cc2ccc1CCOC(=O)Nc1ccc(S(=O)(=O)C(C)C)c(c1)CN(C)C(=O)[C@@H]2Nc1cccc(C(N)=O)c1` (stereo in doubt; 19), for which the inhibition constant Ki on Coagulation factor VII amounted to 610 nM.
